Measurements: paper PMC9533837 (Antiviral Research, 2003)
In brackets after ≈: the same amount, converted by molar mass. Entries after “also recorded” stand apart in the source; their conditions may differ. Read-outs that look alike come from different tables or passages of the source.

How the values were obtained:
[1] = tested on: orthopoxviruses (VAR-BSH, VAR-YAM, VAR-GAR, MPX, CPX, VAC); experiment: organism not typed; assay type: cell-based
VAC = conditions: cited from earlier work
VAC Copenhagen [2] = experiment: microbe, parasite or virus in culture; assay type: cell-based, vaccinia virus; conditions: for IC50: Orthopoxvirus vaccinia, LLC-MK2, read-out: IC50 VAC LLC-MK2
[3] = tested on: VAR-GAR (1966 Brazil Garcia isolate of VAR minor); experiment: organism not typed; assay type: cell-based, variola minor; conditions: for IC50: LLC-MK2, read-out: IC50 VAR-GAR LLC-MK2
CPX Brighton [4] = experiment: organism not typed; assay type: cell-based, cowpox; conditions: for IC50: Vero, read-out: IC50 CPX Vero
[5] = tested on: VAR-BSH (1975 Bangladesh isolate of VAR major); experiment: organism not typed; assay type: cell-based, variola major; conditions: for IC50: Vero, read-out: IC50 VAR-BSH Vero
[6] = tested on: VAR-YAM (1946 Japan Yamada isolate of VAR major); experiment: organism not typed; assay type: cell-based, variola major; conditions: for IC50: LLC-MK2, read-out: IC50 VAR-YAM LLC-MK2
[7] = tested on: VAR-GAR (1966 Brazil Garcia isolate of VAR minor); experiment: organism not typed; assay type: cell-based, variola minor; conditions: for IC50: Vero, read-out: IC50 VAR-GAR Vero
[8] = tested on: VAR-YAM (1946 Japan Yamada isolate of VAR major); experiment: organism not typed; assay type: cell-based, variola major; conditions: for IC50: Vero, read-out: IC50 VAR-YAM Vero
CPX Brighton [9] = experiment: organism not typed; assay type: cell-based, cowpox; conditions: for IC50: LLC-MK2, read-out: IC50 CPX LLC-MK2
[10] = tested on: VAR-BSH (1975 Bangladesh isolate of VAR major); experiment: organism not typed; assay type: cell-based, variola major; conditions: for IC50: LLC-MK2, read-out: IC50 VAR-BSH LLC-MK2
[11] = tested on: MPX Zaire (V79-1-005-Scab); experiment: organism not typed; assay type: cell-based, monkeypox; conditions: for IC50: LLC-MK2, read-out: IC50 MPX LLC-MK2
[12] = tested on: MPX Zaire (V79-1-005-Scab); experiment: organism not typed; assay type: cell-based, monkeypox; conditions: for IC50: Vero, read-out: IC50 MPX Vero
VAC Copenhagen [13] = experiment: microbe, parasite or virus in culture; assay type: cell-based, vaccinia virus; conditions: for IC50: Orthopoxvirus vaccinia, Vero, read-out: IC50 VAC Vero

## Nc1c2ncn([C@@H]3O[C@H](CO)[C@@H](O)[C@H]3O)c2nc[n+]1[O-] [ANO, Adenosine N1-oxide]
[1]
  inhibitory activity against the orthopoxviruses tested (in words): little activity
VAC
  inhibition of VAC virus replication in vitro: inhibits VAC virus replication in vitro

## Nc1ncnc2c1ncn2C[C@@H](CO)OCP(=O)(O)O [HPMPA, (S)-9-(3-hydroxy-2-phosphonylmethoxypropyl)adenine]
VAC Copenhagen [2]
  IC50 VAC LLC-MK2: 8.0 µg/mL (≈ 26.4 µM)
  Therapeutic index (TI) VAC LLC-MK2: 12.5
[3]
  IC50 VAR-GAR LLC-MK2: 4.6 µg/mL (≈ 15.2 µM)
  Therapeutic index (TI) VAR-GAR LLC-MK2: 21.7
CPX Brighton [4]
  IC50 CPX Vero: 8.4 µg/mL (≈ 27.7 µM)
  Therapeutic index (TI) CPX Vero: 11.9
LLC-MK2 cells
  Cytotoxicity TC50 LLC-MK2: >100 µg/mL
[1]
  TI against the panel of viruses: 11.9
  mean IC50 against the panel of viruses: 8.4 ± 0.67 µg/mL
[5]
  IC50 VAR-BSH Vero: 12.6 µg/mL (≈ 41.6 µM)
  Therapeutic index (TI) VAR-BSH Vero: 7.9
[6]
  IC50 VAR-YAM LLC-MK2: 6.8 µg/mL (≈ 22.4 µM)
  Therapeutic index (TI) VAR-YAM LLC-MK2: 14.7
[7]
  IC50 VAR-GAR Vero: 6.6 µg/mL (≈ 21.8 µM)
  Therapeutic index (TI) VAR-GAR Vero: 15.2
[8]
  IC50 VAR-YAM Vero: 11.4 µg/mL (≈ 37.6 µM)
  Therapeutic index (TI) VAR-YAM Vero: 8.8
Vero cells
  Cytotoxicity TC50 Vero: >100 µg/mL
CPX Brighton [9]
  IC50 CPX LLC-MK2: 7.7 µg/mL (≈ 25.4 µM)
  Therapeutic index (TI) CPX LLC-MK2: 13.0
VAC
  inhibition of VAC replication in vitro: inhibit VAC replication in vitro
[10]
  IC50 VAR-BSH LLC-MK2: 6.1 µg/mL (≈ 20.1 µM)
  Therapeutic index (TI) VAR-BSH LLC-MK2: 16.4
[11]
  IC50 MPX LLC-MK2: 9.2 µg/mL (≈ 30.3 µM)
  Therapeutic index (TI) MPX LLC-MK2: 10.9
[12]
  IC50 MPX Vero: 10.9 µg/mL (≈ 35.9 µM)
  Therapeutic index (TI) MPX Vero: 9.2
VAC Copenhagen [13]
  IC50 VAC Vero: 8.1 µg/mL (≈ 26.7 µM)
  Therapeutic index (TI) VAC Vero: 12.3

## NC(=O)NO [Hydroxyurea, hydroxyurea]
[1]
  inhibitory activity against the orthopoxviruses tested (in words): inactive

## CN1C(=O)/C(=N\NC(N)=S)c2ccccc21 [Methisazone, methisazone]
VAC Copenhagen [2]
  Therapeutic index (TI) VAC LLC-MK2: 1.9
  IC50: 52 µg/mL (≈ 222 µM)
[3]
  Therapeutic index (TI) VAR-GAR LLC-MK2: 2.3
  IC50: 44.1 µg/mL (≈ 188 µM)
CPX Brighton [4]
  Therapeutic index (TI) CPX Vero: 2.0
  IC50: 49.2 µg/mL (≈ 210 µM)
LLC-MK2 cells; rhesus monkey
  Cytotoxicity TC50 LLC-MK2: >100 µg/mL
[5]
  Therapeutic index (TI) VAR-BSH Vero: 3.0
  IC50: 34.6 µg/mL (≈ 148 µM)
[6]
  Therapeutic index (TI) VAR-YAM LLC-MK2: 2.3
  IC50: 43.3 µg/mL (≈ 185 µM)
[7]
  Therapeutic index (TI) VAR-GAR Vero: 4.6
  IC50: 21.6 µg/mL (≈ 92.2 µM)
[8]
  Therapeutic index (TI) VAR-YAM Vero: 2.6
  IC50: 39 µg/mL (≈ 166 µM)
Vero cells; African green monkey
  Cytotoxicity TC50 Vero: >100 µg/mL
CPX Brighton [9]
  Therapeutic index (TI) CPX LLC-MK2: 2.2
  IC50: 45.2 µg/mL (≈ 193 µM)
[10]
  Therapeutic index (TI) VAR-BSH LLC-MK2: 2.4
  IC50: 41.2 µg/mL (≈ 176 µM)
[11]
  Therapeutic index (TI) MPX LLC-MK2: 1.2
  IC50: 80.4 µg/mL (≈ 343 µM)
[12]
  Therapeutic index (TI) MPX Vero: 1.5
  IC50: 66.2 µg/mL (≈ 283 µM)
VAC Copenhagen [13]
  Therapeutic index (TI) VAC Vero: 2.2
  IC50: 45.8 µg/mL (≈ 195 µM)

## Nc1ncnc2c1ncn2CCOCP(=O)(O)O [PMEA, 9-[2-(phosphonomethoxy)ethyl]adenine]
[1]
  inhibitory activity against the orthopoxviruses tested (in words): Neither PMEA nor bis-POM-PMEA was effective

## NC(=O)c1csc([C@@H]2O[C@H](CO)[C@@H](O)[C@H]2O)n1 [Tiazofurin, 2-β-D-ribofuranosylthiazole-4-carboxamide]
VAC Copenhagen [2]
  Therapeutic index (TI) VAC LLC-MK2: 3.0
  IC50: 33.3 µg/mL (≈ 128 µM)
[3]
  Therapeutic index (TI) VAR-GAR LLC-MK2: 16.4
  IC50: 6.1 µg/mL (≈ 23.4 µM)
CPX Brighton [4]
  Therapeutic index (TI) CPX Vero: 2.6
  IC50: 34.6 µg/mL (≈ 133 µM)
LLC-MK2 cells; rhesus monkey
  Cytotoxicity TC50 LLC-MK2: >100 µg/mL
[1]; LLC-MK2, read-out: mean IC50 on LLC-MK2 cells
  IC50: 10.8 ± 4.6 µg/mL (≈ 41.5 µM)
[1]; Vero, read-out: mean IC50 on Vero cells
  IC50: 36.4 ± 12.9 µg/mL (≈ 140 µM)
[5]
  Therapeutic index (TI) VAR-BSH Vero: 4.0
  IC50: 22.6 µg/mL (≈ 86.8 µM)
[6]
  Therapeutic index (TI) VAR-YAM LLC-MK2: 25.6
  IC50: 3.9 µg/mL (≈ 15 µM)
[7]
  Therapeutic index (TI) VAR-GAR Vero: 4.5
  IC50: 19.8 µg/mL (≈ 76.1 µM)
[8]
  Therapeutic index (TI) VAR-YAM Vero: 4.2
  IC50: 21.4 µg/mL (≈ 82.2 µM)
Vero cells; African green monkey
  Cytotoxicity TC50 Vero: 90.0 µg/mL
CPX Brighton [9]
  Therapeutic index (TI) CPX LLC-MK2: 9.1
  IC50: 11 µg/mL (≈ 42.3 µM)
[10]
  Therapeutic index (TI) VAR-BSH LLC-MK2: 18.2
  IC50: 5.5 µg/mL (≈ 21.1 µM)
[11]
  Therapeutic index (TI) MPX LLC-MK2: 19.2
  IC50: 5.2 µg/mL (≈ 20 µM)
[12]
  Therapeutic index (TI) MPX Vero: 4.5
  IC50: 20 µg/mL (≈ 76.8 µM)
VAC Copenhagen [13]
  Therapeutic index (TI) VAC Vero: 1.0
  IC50: > 100 µg/mL

## Nc1nc2c(ncn2COCCO)c(=O)[nH]1 [acyclovir, Acyclovir]
[1]
  inhibitory activity against the orthopoxviruses tested (in words): No other test compounds of this group (acyclovir, brovavir, lobucavir, didanosine, ddC, or d4C) showed any activity; also recorded: failed to inhibit orthopoxvirus replication

## O=c1[nH]c(=O)n([C@@H]2O[C@H](CO)[C@@H](O)[C@@H]2O)cc1/C=C/Br [brovavir, Brovavir]
[1]
  inhibitory activity against the orthopoxviruses tested (in words): No other test compounds of this group (acyclovir, brovavir, lobucavir, didanosine, ddC, or d4C) showed any activity; also recorded: failed to inhibit orthopoxvirus replication

## Nc1ccn([C@H]2C=C[C@@H](CO)O2)c(=O)n1 [d4C, 2′,3′-dideoxydidehydrocytidine]
[1]
  inhibitory activity against the orthopoxviruses tested (in words): No other test compounds of this group (acyclovir, brovavir, lobucavir, didanosine, ddC, or d4C) showed any activity

## Nc1ccn([C@H]2CC[C@@H](CO)O2)c(=O)n1 [ddC, zalcitabine]
[1]
  inhibitory activity against the orthopoxviruses tested (in words): No other test compounds of this group (acyclovir, brovavir, lobucavir, didanosine, ddC, or d4C) showed any activity

## O=c1[nH]cnc2c1ncn2[C@H]1CC[C@@H](CO)O1 [didanosine]
[1]
  inhibitory activity against the orthopoxviruses tested (in words): No other test compounds of this group (acyclovir, brovavir, lobucavir, didanosine, ddC, or d4C) showed any activity

## O=C1Nc2ccc(Cl)cc2[C@@](C#CC2CC2)(C(F)(F)F)O1 [efavirenz]
[1]
  inhibitory activity against the orthopoxviruses tested (in words): inactive

## Nc1nc(=O)c2ncn([C@@H]3C[C@H](CO)[C@H]3CO)c2[nH]1 [lobucavir, [1R(1α,2β,3α)]-9-[2,3-bis(hydroxymethyl)cyclobutyl]guanine]
[1]
  inhibitory activity against the orthopoxviruses tested (in words): No other test compounds of this group (acyclovir, brovavir, lobucavir, didanosine, ddC, or d4C) showed any activity; also recorded: failed to inhibit orthopoxvirus replication

## Cc1c(O)cccc1C(=O)N[C@@H](CSc1ccccc1)[C@H](O)CN1C[C@H]2CCCC[C@H]2C[C@H]1C(=O)NC(C)(C)C [nelfinavir, Nelfinavir]
[1]
  inhibitory activity against the orthopoxviruses tested (in words): inactive

## CC(C)c1nc(CN(C)C(=O)N[C@H](C(=O)N[C@@H](Cc2ccccc2)C[C@H](O)[C@H](Cc2ccccc2)NC(=O)OCc2cncs2)C(C)C)cs1 [ritonavir, Ritonavir]
[1]
  inhibitory activity against the orthopoxviruses tested (in words): inactive

## CC(C)(C)NC(=O)[C@@H]1C[C@@H]2CCCC[C@@H]2CN1C[C@@H](O)[C@H](Cc1ccccc1)NC(=O)[C@H](CC(N)=O)NC(=O)c1ccc2ccccc2n1 [saquinavir, Saquinavir]
[1]
  inhibitory activity against the orthopoxviruses tested (in words): inactive

## Cc1cn([C@H]2C=C[C@@H](CO)O2)c(=O)[nH]c1=O [stavudine]
[1]
  inhibitory activity against the orthopoxviruses tested (in words): inactive

## Cc1cn([C@H]2C[C@H](N=[N+]=[N-])[C@@H](CO)O2)c(=O)[nH]c1=O [zidovudine]
[1]
  inhibitory activity against the orthopoxviruses tested (in words): inactive
